Assay results as given in PMC7115410 (European Journal of Medicinal Chemistry, 2018).
Read-outs that look alike come from different tables or passages of the source.

How the values were obtained:
HCT116 cells = conditions: 25 μM 5-FU alone
Chk1 phosphorylation [1] = conditions: HCT116 cells
[2] = system: cleaved caspase 3, cleaved PARP 1, Bax, Bcl2; conditions: FOLFOX-HT29 cells, different concentrations, 24 h
γH2AX = conditions: HCT-116 cells, 7b (5, 10 and 20 μM), 24 h
[3] = system: cleaved caspase 3, cleaved PARP 1, Bax, Bcl2; conditions: FOLFOX-HCT116 cells, different concentrations, 24 h
Chk1 phosphorylation [4] = conditions: FOLFOX-HT29 cells, different concentrations, 24 h
Chk1 = Chk1 (Homo sapiens, UniProt O14757); conditions: in vitro Chk1 kinase assay, purified Chk1 protein
Sequence of Chk1 (O14757 whole entry): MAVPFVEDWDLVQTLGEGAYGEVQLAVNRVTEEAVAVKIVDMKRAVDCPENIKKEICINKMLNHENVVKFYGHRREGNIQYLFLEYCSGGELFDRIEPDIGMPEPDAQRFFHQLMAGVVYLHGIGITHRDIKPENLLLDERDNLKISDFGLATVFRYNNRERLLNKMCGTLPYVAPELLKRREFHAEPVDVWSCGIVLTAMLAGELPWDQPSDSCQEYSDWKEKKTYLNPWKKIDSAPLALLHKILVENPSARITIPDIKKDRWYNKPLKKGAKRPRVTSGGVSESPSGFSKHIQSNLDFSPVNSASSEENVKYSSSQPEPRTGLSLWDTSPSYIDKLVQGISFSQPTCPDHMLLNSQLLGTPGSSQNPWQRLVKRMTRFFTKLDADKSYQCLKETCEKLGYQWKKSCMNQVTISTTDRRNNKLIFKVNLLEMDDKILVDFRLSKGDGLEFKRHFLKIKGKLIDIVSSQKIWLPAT

Compound	Levels of cleaved caspase 3 and PARP1 [2]	Levels of cleaved caspase 3 and PARP1 [3]	Chk1(S345P) phosphorylation (Chk1 phosphorylation [4])	other results
O=c1[nH]cc(F)c(=O)[nH]1 [Compound 5-FU, 5-fluorouracil]				Cell cycle profile (HCT116 cells): S phase arrest
NC(=O)NO [HU, hydroxyurea, reference compound]				Phosphorylation of Chk1(S317P), Chk1(S345P) and Chk1(S296P) (Chk1 phosphorylation [1]; 1 mM HU alone): high level phosphorylation
1-(3-Phenyl-allyl)-3,5,7-triaza-1-azonia-tricyclo[3.3.1.1^3,7]decane; chloride [Compound 7b]	increased levels	increased levels	increase	γH2AX-foci, compound alone (γH2AX): increased γH2AX-foci; HU-induced phosphorylation of Chk1(S317P), Chk1(S345P) and Chk1(S296P) (Chk1 phosphorylation [1]; 1 mM HU for 24 h followed by 20 μM 7b for additional 8 h): reduced after combination treatment
ClC/C=C/C[N+]12CN3CN(CN(C3)C1)C2.[Cl-] [Compound 7a, 1-(4-Chloro-but-2-enyl)-3,5,7-triaza-1-azonia-tricyclo[3.3.1.1^3,7]decane; chloride]	increased levels	increased levels	increase	Inhibition of Chk1 activity in a reconstituted purified system (Chk1): do not inhibit
